Source: PMC3022706 (BMC Microbiology, 2010)

T1: Dld (Cg1027), quinone-dependent D-lactate dehydrogenase (Corynebacterium glutamicum, UniProt Q8NRY8)
T1 construct: PCR fragment printed as 1,020 bp but gene coordinates 955683-957398 imply 571 residues; reverse primer dld2 lacks stop codon; abstract also misprints Cg1067
T1 sequence (Q8NRY8 1-571): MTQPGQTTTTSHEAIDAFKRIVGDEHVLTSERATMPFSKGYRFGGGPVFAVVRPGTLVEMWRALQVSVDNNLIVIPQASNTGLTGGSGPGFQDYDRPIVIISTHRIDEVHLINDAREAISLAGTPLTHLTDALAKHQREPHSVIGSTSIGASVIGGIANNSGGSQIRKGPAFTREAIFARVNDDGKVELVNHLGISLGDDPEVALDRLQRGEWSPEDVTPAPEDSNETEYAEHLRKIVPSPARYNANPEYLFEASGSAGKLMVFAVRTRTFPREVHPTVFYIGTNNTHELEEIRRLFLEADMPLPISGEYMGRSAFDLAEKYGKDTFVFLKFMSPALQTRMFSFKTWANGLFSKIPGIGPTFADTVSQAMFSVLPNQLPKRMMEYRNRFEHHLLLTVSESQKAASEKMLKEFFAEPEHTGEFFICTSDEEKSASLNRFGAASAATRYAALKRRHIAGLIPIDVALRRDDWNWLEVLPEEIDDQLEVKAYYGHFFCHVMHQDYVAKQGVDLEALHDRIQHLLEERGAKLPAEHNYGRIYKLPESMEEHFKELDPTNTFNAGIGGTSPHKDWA


Tests used:
[1] = molecular target: T1, Dld (Cg1027), quinone-dependent D-lactate dehydrogenase; experiment: absorption spectrum of purified protein ([…] and […] nm); assay type: binding; details: bound cofactor, co-purified; non-covalent; identified from spectrum and FAD domain
[2] = substrate: C[C@@H](O)C(=O)O; experiment: purified protein; details: 2,6-dichloroindophenol as electron acceptor, 30 °C, potassium phosphate, pH optimum 7.0, Discussion prints 0.62 mM

Molecule | absorption spectrum of purified protein (375 and 445 nm) [1] | Km [2] [µM]
Cc1cc2nc3c(=O)[nH]c(=O)nc-3n(C[C@H](O)[C@H](O)[C@H](O)COP(=O)(O)OP(=O)(O)OC[C@H]3O[C@@H](n4cnc5c(N)ncnc54)[C@H](O)[C@@H]3O)c2cc1C [FAD] | These results suggest that D-lactate dehydrogenase from C. glutamicum contains FAD as a bound cofactor | 
Dld (Cg1027), quinone-dependent D-lactate dehydrogenase (Corynebacterium glutamicum ATCC 13032) (protein) MTQPGQTTTTSHEAIDAFKRIVGDEHVLTSERATMPFSKGYRFGGGPVFAVVRPGTLVEMWRALQVSVDNNLIVIPQASNTGLTGGSGPGFQDYDRPIVIISTHRIDEVHLINDAREAISLAGTPLTHLTDALAKHQREPHSVIGSTSIGASVIGGIANNSGGSQIRKGPAFTREAIFARVNDDGKVELVNHLGISLGDDPEVALDRLQRGEWSPEDVTPAPEDSNETEYAEHLRKIVPSPARYNANPEYLFEASGSAGKLMVFAVRTRTFPREVHPTVFYIGTNNTHELEEIRRLFLEADMPLPISGEYMGRSAFDLAEKYGKDTFVFLKFMSPALQTRMFSFKTWANGLFSKIPGIGPTFADTVSQAMFSVLPNQLPKRMMEYRNRFEHHLLLTVSESQKAASEKMLKEFFAEPEHTGEFFICTSDEEKSASLNRFGAASAATRYAALKRRHIAGLIPIDVALRRDDWNWLEVLPEEIDDQLEVKAYYGHFFCHVMHQDYVAKQGVDLEALHDRIQHLLEERGAKLPAEHNYGRIYKLPESMEEHFKELDPTNTFNAGIGGTSPHKDWA |  | 610
